From patent publication US7524964B2, “Tetrahydrothiopyrano pyrazole cannabinoid modulators” (Janssen Pharmaceutica NV, priority 2005, dated 2009)
Values joined by “and” are separate entries in the source; they are usually repeats but may differ in a detail not shown here. Equal values may be shown once.

Columns and labels:
human CB1 receptor [1] = target: T1, human CB1 receptor (Homo sapiens, UniProt P21554); experiment: Binding assay, cannabinoid CB1 receptor ([3H]-CP-55,940 displacement); set-up: expressed in transfected cells; host or cells: SK-N-MC cells, pcDNA3 CB-1 (human), semi-purified membranes; settings: for inhibition at 1 µM: test concentration 1 μM (superscript b)
Method in brief: (§1)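 Displacement of 0.2 nM [3H]-CP-55,940 (non-specific: 10 uM WIN 55,212) was run on semi-purified membranes of transfected SK-N-MC cells carrying human CB-1 or CB-2, 90 min, 30° C, pH 7.5. Scintillation counting; IC50 by linear regression, else % inhibition at 0.2, 1 or 10 μM.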

human CB1 receptor [2] = target: T1, human CB1 receptor; experiment: Functional cell-based assay, CB1 receptor mediated change in CRE β-gal expression (adenylate cyclase activity); set-up: expressed in transfected cells; host or cells: SK-NC cells [sic], pcDNA3-CRE β-gal and pcDNA3 CB-1 (human); settings: for inhibition at 1 µM: test concentration 1 μM, where an EC50 was not obtained, read-out: CB1 functional percent inhibition
Source text: Functional Cell-Based Assay for CB1 or CB2 Agonist and Inverse Agonist Effects on Intra-Cellular Adenylate Cyclase Activity
The CB1 and CB2 receptors are G-protein coupled receptors (GPCR), which influence cell function via the Gi-protein. These receptors modulate the activity of intracellular adenylate cyclase, which in turn produces the intracellular signal messenger cyclic-AMP (cAMP).
At baseline, or during non-ligand bound conditions, these receptors are constitutively active and tonically suppress adenylate cyclase activity. The binding of an agonist causes further receptor activation and produces additional suppression of adenylate cyclase activity. The binding of an inverse agonist inhibits the constitutive activity of the receptors and results in an increase in adenylate cyclase activity.
By monitoring intracellular adenylate cyclase activity, the ability of compounds to act as agonists or inverse agonists can be determined.
Test compounds were evaluated in SK-NC cells which, using standard transfection procedures, were stably transfected with human cDNA for pcDNA3-CRE β-gal and pcDNA3 CB-1 (human) or pcDNA3 CB-2 (human). By expressing CRE β-gal, the cells produced β-galactosidase in response to CRE promoter activation by cAMP. Cells expressing CRE β-gal and either the human CB1 or CB2 receptor will produce less β-galactosidase when treated with a CB1/CB2 agonist and will produce more β-galactosidase when treated with a CB1/CB2 inverse agonist.
The cells were grown in 96-well plates under standard cell culture conditions at 37° C. in a 5% CO2 atmosphere. After 3 days, the media was removed and a test compound in media (wherein the media was supplemented with 2 mM L-glutamine, […] sodium pyruvate, 0.1% low fatty acid FBS (fetal bovine serum) and antibiotics) was added to the cell. The plates were incubated for 30 minutes at 37° C. and the plate cells were then treated with forskolin over a 4-6 hour period, then washed and lysed. The β-galactosidase activity was quantitated using commercially available kit reagents (Promega Corp. Madison, Wis.) and a Vmax Plate Reader (Molecular Devices, Inc).
For cells expressing CRE β-gal and the CB1 receptor, CB1 agonists reduced β-galactosidase activity in a dose-dependent manner and CB1 inverse agonists increased β-galactosidase activity in a dose-dependent manner.
The change in β-galactosidase activity was determined by setting a vehicle treated cell's activity value at 100% and expressing the β-galactosidase activity measured in a corresponding compound treated cell as a percent of the vehicle treated cell activity.
The EC50 and IC50 values for compounds tested were calculated by linear regression and were obtained from studies in which varying compound concentrations were used.
The EC50 values for compounds tested were calculated by linear regression and were obtained from studies in which varying compound concentrations were used. Where an EC50 was not obtained, test results are provided as percent inhibition at a test concentration of 1 μM. ^aTest value in IC50; indicates agonist activity.

human CB-2 receptor = target: T2, human CB-2 receptor (Homo sapiens, UniProt P34972); experiment: Binding assay, cannabinoid CB2 receptor ([3H]-CP-55,940 displacement); settings: for inhibition at 1 µM: test concentration 1 μM (superscript b), read-out: CB2 binding percent inhibition
T2 construct: expressed in transfected cells; host or cells: SK-N-MC cells, pcDNA3 CB-2 (human), semi-purified membranes
Method in brief: as §1

[3] = read-out: CB1 binding percent inhibition

T2 sequence (P34972 whole entry): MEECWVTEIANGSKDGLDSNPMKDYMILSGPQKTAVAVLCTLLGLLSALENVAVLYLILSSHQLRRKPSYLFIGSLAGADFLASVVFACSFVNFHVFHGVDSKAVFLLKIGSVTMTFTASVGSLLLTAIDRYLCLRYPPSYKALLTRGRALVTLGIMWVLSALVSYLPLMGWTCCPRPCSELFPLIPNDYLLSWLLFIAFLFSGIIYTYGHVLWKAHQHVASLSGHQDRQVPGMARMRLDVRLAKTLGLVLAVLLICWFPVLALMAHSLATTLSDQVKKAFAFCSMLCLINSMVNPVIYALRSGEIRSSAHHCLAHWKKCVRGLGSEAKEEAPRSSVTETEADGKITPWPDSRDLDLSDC
T1 sequence (P21554 whole entry): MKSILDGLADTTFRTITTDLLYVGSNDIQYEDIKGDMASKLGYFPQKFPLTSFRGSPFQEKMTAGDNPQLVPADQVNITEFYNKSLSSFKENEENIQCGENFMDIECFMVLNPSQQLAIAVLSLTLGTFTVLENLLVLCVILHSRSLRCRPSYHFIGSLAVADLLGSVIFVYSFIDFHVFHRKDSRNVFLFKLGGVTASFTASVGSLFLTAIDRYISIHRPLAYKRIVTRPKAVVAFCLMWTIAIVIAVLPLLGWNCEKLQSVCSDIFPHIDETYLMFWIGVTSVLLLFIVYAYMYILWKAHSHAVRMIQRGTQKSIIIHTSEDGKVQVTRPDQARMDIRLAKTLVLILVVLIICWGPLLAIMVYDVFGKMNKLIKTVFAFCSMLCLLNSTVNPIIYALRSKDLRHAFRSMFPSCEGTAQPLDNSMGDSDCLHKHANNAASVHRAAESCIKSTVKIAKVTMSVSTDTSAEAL

Row | SMILES | inhibition at 1 µM (human CB1 receptor [2]) [%] | IC50 (human CB1 receptor [1]) [nM] | IC50 (human CB1 receptor [2]) [nM] | IC50 (human CB-2 receptor) [nM] | inhibition at 1 µM (human CB1 receptor [1]; [3]) [%] | other results
1 | CC(NS(=O)(=O)/C=C/c1nn(Cc2ccccc2)c2c1C[S+]([O-])CC2)C1CCCCC1 (stereo not drawn) [Cpd 25, (E)-2-(1-benzyl-5-oxo-4,5,6,7-tetrahydro-1H-5λ^4-thiopyrano[4,3-c]pyrazol-3-yl)-ethenesulfonic acid (1-cyclohexyl-ethyl)amide] | 1 | – | – | – | – | CB1 binding percent inhibition (human CB1 receptor [1]; test concentration 10 μM (superscript c), 10 µM): 0% and 6%
2 | CC12CCC(C1)C(C)(C)C2NC(=O)c1nn(Cc2ccccc2)c2c1CS(=O)(=O)CC2 (stereo not drawn) [Cpd 20, 1-benzyl-5,5-dioxo-4,5,6,7-tetrahydro-1H-5λ^6-thiopyrano[4,3-c]pyrazole-3-carboxylic acid (1,3,3-trimethyl-bicyclo[2.2.1]hept-2-yl)-amide] | – | 22 | 60 | 5 | – | –
3 | C[C@@H](NC(=O)c1nn(Cc2ccccc2)c2c1CS(=O)(=O)CC2)c1ccccc1 [Cpd 13, 1-benzyl-5,5-dioxo-4,5,6,7-tetrahydro-1H-5λ^6-thiopyrano[4,3-c]pyrazole-3-carboxylic acid [(1R)-1-phenyl-ethyl]-amide] | – | – | – | – | 38 | EC50 (human CB1 receptor [2]): 7880 nM; inhibition at 1 µM (human CB-2 receptor): 55%
4 | CC12CCC(C1)C(C)(C)C2NC(=O)c1nn(Cc2ccccc2)c2c1C[S+]([O-])CC2 (stereo not drawn) [Cpd 21, 1-benzyl-5-oxo-4,5,6,7-tetrahydro-1H-5λ^4-thiopyrano[4,3-c]pyrazole-3-carboxylic acid (1,3,3-trimethyl-bicyclo[2.2.1]hept-2-yl)-amide] | – | – | 6300 | 56 | 53 | –
5 | C[C@@H](NC(=O)c1nn(Cc2ccccc2)c2c1CSCC2)c1ccccc1 [Cpd 1, 1-benzyl-1,4,6,7-tetrahydro-thiopyrano[4,3-c]pyrazole-3-carboxylic acid [(1R)-1-phenyl-ethyl]-amide] | – | 160 | 70 | 62 | – | –
6 | C[C@H](NS(=O)(=O)/C=C/c1nn(Cc2ccccc2)c2c1CSCC2)c1ccccc1 [Cpd 3, (E)-2-(1-benzyl-1,4,6,7-tetrahydro-thiopyrano[4-3-c]pyrazol-3-yl)-ethenesulfonic acid [(1S)-1-phenyl-ethyl]-amide] | 17 | – | – | – | 23 | inhibition at 1 µM (human CB-2 receptor): 74%
7 | C[C@@H](NC(=O)/C=C/c1nn(Cc2ccccc2)c2c1CSCC2)c1ccccc1 [Cpd 33, (2E)-3-(1-benzyl-1,4,6,7-tetrahydro-thiopyrano[4,3-c]pyrazol-3-yl)-N-[(1R)-1-phenyl-ethyl]-acrylamide] | 24 | – | – | 6800 | 35 | inhibition at 10 µM (human CB1 receptor [1]; test concentration 10 μM (superscript c), read-out: CB1 binding percent inhibition): 9%
8 | CC12CCC(C1)C(C)(C)C2NC(=O)c1nn(Cc2ccccc2)c2c1CSCC2 (stereo not drawn) [Cpd 19, 1-benzyl-1,4,6,7-tetrahydro-thiopyrano[4,3-c]pyrazole-3-carboxylic acid (1,3,3-trimethyl-bicyclo[2.2.1]hept-2-yl)-amide] | – | 5 | 30 | 0.7 | – | –
